Active and inactive are the calls of the source. Rule as the data show it: active = IC50 below about 20 µM; inactive = the rest.
The compounds below were run on Gli-responsive luciferase reporter cells, SUFU pathway antagonism (assay: blockers of Gli reporter signaling – cell-based, luciferase luminescence, uHTS hits, dose response (AID 602464)).

Point of comparison: `Cc1cc(C)nc(SCC(=O)Nc2ccc(N3CCOCC3)c(Cl)c2)n1`, IC50 3.52 µM. Against it:
- COCCNc1nc2c(c(=O)n(C)c(=O)n2C)n1Cc1cccc(C(F)(F)F)c1 — within 1.5-fold, 3.55 µM
- Cc1cc(N/N=C/c2ccc(O)cc2O)nc(-n2nc(C)cc2C)n1 — 2-fold higher, 7.17 µM
- CC(C)(C)OC(=O)NCCCCCc1cn(CC(=O)NCCCCCCCCCCC(=O)N2CCN(C(=O)OC(C)(C)C)CC2)nn1 — within 1.5-fold, 2.93 µM
- CCC(C)NC(=O)CCC(=O)OC1O[C@H]2OC3(C)CC[C@H]4[C@H](C)CCC(C1C)C24OO3 (some centres undefined) — 8.4-fold lower, 0.421 µM
- O=C(c1cc2sccc2n1Cc1ccccc1)N1CCN(c2nc3ccccc3s2)CC1 — within 1.5-fold, 4.67 µM
- Cc1sc2ncnc(N3CCN(S(=O)(=O)c4ccc(C(C)(C)C)cc4)CC3)c2c1C — 1.5-fold higher, 5.43 µM
- CCC(=O)c1ccc(OCC(O)Cn2c(C)nc3ccccc32)cc1 (centres undefined) — 2.2-fold higher, 7.89 µM
- CCOc1ccc(-c2cc(C)[n+](CCO)c(-c3ccc(OCC)cc3)c2)cc1 — 4.2-fold higher, 14.8 µM
- C=CCNC(=S)/N=c1/ccccn1Cc1ccccc1 — 3.4-fold higher, 11.9 µM
- Cc1cc(C)c(C(N)=O)c(SCC(=O)c2cc(C)n(-c3cc(C)on3)c2C)n1 — within 1.5-fold, 4.78 µM
- Cc1c(C(C)C)c(=O)n(-c2ccc(S(=O)(=O)NCc3ccccc3)cc2)n1C — within 1.5-fold, 3.84 µM
- c1ccc(C[n+]2cccc(-c3ccccc3)c2)cc1 — 3.1-fold higher, 10.8 µM
- COc1ccc(CN(C)Cc2nc(Cc3cccc(F)c3)no2)c2cccnc12 — 1.7-fold higher, 5.96 µM
- Cc1ccc(C(=O)N2CCN3C(=O)c4ccccc4C23c2ccc(Cl)cc2)cc1 (centres undefined) — within 1.5-fold, 4.95 µM
- CC(Sc1nc2ccccc2c(=O)n1C)C(=O)N(C)C1CCCCC1 (centres undefined) — within 1.5-fold, 3.99 µM
- Cc1nc2ncccn2c1-c1csc(Nc2ccc(O)cc2)n1 — within 1.5-fold, 4.37 µM
- CC1CCCCC1NS(=O)(=O)c1ccc(S(=O)(=O)NCc2ccncc2)cc1 (centres undefined) — 1.6-fold higher, 5.58 µM
- COc1cc(C(=O)NC2CCN(C)CC2)ccc1Nc1ncc2c(n1)N(CCc1ccccc1)CCC(=O)N2C — within 1.5-fold, 4.62 µM
- CCOC(=O)c1c(NC(=O)COc2ncnc3ccccc23)sc(C(C)=O)c1C — 2.9-fold higher, 10.1 µM
- C[n+]1c2n(c3ccccc31)N=C(c1ccccc1)CS2 — 1.8-fold higher, 6.49 µM
- COc1ccc(NS(=O)(=O)c2ccc(N3CCCCC3)c(N)c2)cc1 — within 1.5-fold, 5.14 µM
- Cc1nn(Cc2noc(C(=O)NC3CCC(C)CC3)n2)c(C)c1Br (centres undefined) — 2.4-fold higher, 8.59 µM
- CN(Cc1nccs1)C(=O)c1cc(COc2cccc3cnccc23)on1 — 3.4-fold higher, 12 µM
- CC(CC(=O)N1CCN(c2cccc(Cl)c2)CC1)S(=O)(=O)c1ccc2c(c1)NC(=O)CO2 (centres undefined) — 1.8-fold higher, 6.43 µM
- Cc1ccc(-c2csc(NC(=O)c3c(C)noc3C)n2)s1 — 1.6-fold higher, 5.53 µM
- O=C(Nc1ccncc1)c1ccc(-c2ccccc2)cc1 — 1.8-fold higher, 6.43 µM
- Cc1nc2ccccc2c2c1CC(C(C)(Cl)Br)O2 (centres undefined) — 1.7-fold higher, 5.82 µM
- Cc1nnsc1C(=O)NC1CCCc2c1cnn2-c1ccc(F)cc1F (centres undefined) — 2.3-fold higher, 8.15 µM
- CCn1c(=NC(=O)CCS(=O)(=O)c2ccccc2)sc2cccc(OC)c21 — within 1.5-fold, 3.11 µM
- COc1cccc(CN(C)C(=O)c2cc(COc3ccc4ncccc4c3)on2)c1 — 1.5-fold higher, 5.39 µM
- COc1ccc(N2CCN(c3ncnc4c3[nH]c3ccccc34)CC2)cc1 — within 1.5-fold, 2.52 µM
- Nc1nc2ccccc2n1/N=C/c1ccc([N+](=O)[O-])s1 — 1.8-fold higher, 6.42 µM
- COc1cccc2nc3c(C(=O)NCCN(C)C)cccc3cc12 — within 1.5-fold, 3.02 µM
- C=CCOc1nc2c(c(=O)n(C)c(=O)n2C)n1Cc1ccc(Cl)cc1Cl — 2.9-fold higher, 10.3 µM
- Clc1ccc(-c2cn(-c3ccc(Cl)cc3)c3[n+]2CCCCC3)cc1 — 1.8-fold higher, 6.44 µM
- COc1ccc(C(=O)C[n+]2cc(-c3ccc(OC)cc3)n3c2CCCC3)cc1 — 1.8-fold higher, 6.41 µM
- c1ccc(-c2c[n+]3c(n2-c2ccccc2)SCC3)cc1 — 2.8-fold higher, 9.72 µM
- Nc1ccc(Br)cc1-c1nc2ccccc2[nH]c1=O — 4.6-fold lower, 0.771 µM
- CCOc1ccc2[nH]c3c(N4CCN(C(=O)c5ccco5)CC4)ncnc3c2c1 — 2-fold higher, 7.07 µM
- CCOc1ccc(-c2nc(CSCC(=O)NC3CC3)c(C)o2)cc1 — 9.3-fold lower, 0.377 µM
- COc1ccc(-c2nn(-c3ccccc3)cc2/C=N/NC(=O)c2ccc(Br)o2)cc1 — 1.5-fold higher, 5.42 µM
- COc1ccc(C(C(=O)NC2CCCCC2)N(C(=O)CCl)c2ccc(Cl)cc2)cc1 (centres undefined) — within 1.5-fold, 4.5 µM
- CCOC(=O)c1c(NC(=O)COc2cccc3c2CCN(C)C3=O)sc2c1CCC2 — 2.4-fold higher, 8.42 µM
- O=C(N[C@@H]1C/C=C\C[C@H](CC(=O)N(CCO)Cc2ccccc2)C(=O)NC[C@@H](c2ccccc2)OC1=O)OCC1c2ccccc2-c2ccccc21 — 1.8-fold higher, 6.27 µM
- COc1ccc(-c2c(C#N)c(N)nc3c2CCc2ccccc2-3)cc1OC — 1.9-fold higher, 6.7 µM
- CC(=O)c1cn(CCOc2ccccc2C)c2ccccc12 — 2.4-fold higher, 8.58 µM
- CC1Cc2cc(S(=O)(=O)N3CCC(C(=O)N4CCN(c5ccccc5F)CC4)CC3)ccc2N1C(=O)C1CC1 (centres undefined) — within 1.5-fold, 4.27 µM
- CC[N+](C)(CC)CCC(c1ccccc1)C1CCCCC1 (centres undefined) — 3.7-fold higher, 13.1 µM
- CCc1ccccc1NC(=S)N=Nc1c(O)n(C)c2ccc(S(=O)(=O)N3CCOCC3)cc12 — 3.1-fold higher, 10.9 µM
- CCCCSc1nc2sc3c(c2c(=O)n1-c1ccc(C)cc1)CCN(C)C3 — 5.1-fold higher, 17.9 µM
- COc1cc(C(=O)NC2CCN(C)CC2)ccc1Nc1ncc2c(n1)N(Cc1ccccc1)CCC(=O)N2C — 2.8-fold lower, 1.28 µM
- C=C(C)CSc1nc2sc3c(c2c(=O)n1C1CCCCC1)CCN(C)C3 — 2.5-fold higher, 8.67 µM
- Cc1sc2ncnc(NCC(O)c3ccc([N+](=O)[O-])cc3)c2c1C (centres undefined) — within 1.5-fold, 4.75 µM
- O=C(NC1CCCC1)c1cc(COc2ccc3ncccc3c2)on1 — within 1.5-fold, 5.18 µM
- O=C(Nc1ccccc1)C1=C[C@H](C2CCCCC2)C[C@H](OCCCCO)O1 — 5.3-fold lower, 0.666 µM
- O=C(Nc1nc(-c2cccs2)cs1)c1cccc(S(=O)(=O)N2CCCCCC2)c1 — 1.5-fold lower, 2.28 µM
- CC1CN(S(=O)(=O)c2ccc(C(=O)Nc3nc(-c4cc5ccccc5o4)cs3)cc2)CC(C)O1 (centres undefined) — 2.8-fold lower, 1.26 µM
- c1ccc(-c2cn(-c3ccccc3)c3[n+]2CCS3)cc1 — 1.9-fold higher, 6.57 µM
- CCCN1CCC(=O)N([C@H](CSc2ccc(OC)cc2)Cc2ccccc2)CC1 — 2.8-fold higher, 9.77 µM
- O=C(C1CCCCC1)N1CCN(c2ccnc3cc(Cl)ccc23)CC1 — within 1.5-fold, 4.29 µM
- COc1ccc(CN2CCC(C(=O)Nc3ccc(Oc4cccnc4)cc3)CC2)c(C)c1C — 3.6-fold higher, 12.6 µM
- O=C(N[C@H]1C/C=C\C[C@@H](CC(=O)N(CCO)Cc2ccccc2)C(=O)NC[C@H](c2ccccc2)OC1=O)OCC1c2ccccc2-c2ccccc21 — 2-fold higher, 7.18 µM
- COC(=O)c1cc(S(=O)(=O)N2CCC(c3cc(OC)ccc3OC)C2)c[nH]1 (centres undefined) — 2.8-fold higher, 9.96 µM
- CC(=O)c1cccc(NS(=O)(=O)c2ccc(-c3cnc(C4CC4)o3)cc2)c1 — 2.3-fold higher, 8.16 µM
- Cc1cc(C)c(C)c(S(=O)(=O)N2CCN(c3ncnc4ccccc34)CC2)c1C — within 1.5-fold, 4.6 µM
- Cc1sc2ncnc(NCc3cccs3)c2c1C — 2.3-fold higher, 8.05 µM
- Cc1ccc(C)c(-c2csc(NC(=O)C3=COCCO3)n2)c1 — 1.8-fold higher, 6.31 µM
- Cc1ccc(-c2c[n+](Cc3ccc(Cl)c(Cl)c3)c3n2CCC3)cc1 — within 1.5-fold, 2.79 µM
- C[N+]1=C(/C=C/Nc2ccccc2)C(C)(C)c2ccccc21 — 1.5-fold higher, 5.37 µM
- Cc1cc(-c2ccccc2)cc(-c2ccccc2)[n+]1C — within 1.5-fold, 4.46 µM
- COc1ccccc1-n1c(-c2ccccc2)c[n+]2c1CCc1ccccc1-2 — within 1.5-fold, 3.63 µM
- CCCCOc1ncnc2c1[nH]c1ccc(F)cc12 — within 1.5-fold, 4.85 µM
- Cc1sc2ncnc(NCC(C)(C)N3CCOCC3)c2c1C — within 1.5-fold, 3.85 µM
- O=C(c1ccc(C(F)(F)F)cc1)C1CCCN(Cc2ccncc2)C1 (centres undefined) — within 1.5-fold, 5.26 µM
- Brc1ccc(-[n+]2c(-c3ccccc3)cc(-c3ccccc3)cc2-c2ccccc2)cc1 — within 1.5-fold, 4.82 µM
- CCN(CC)S(=O)(=O)c1ccc(C)c(NC(=S)N2CCN(Cc3ccc4c(c3)OCO4)CC2)c1 — 3.5-fold higher, 12.2 µM
- O=C(N[C@@H]1C/C=C\C[C@@H](CC(=O)N(CCO)Cc2ccccc2)C(=O)NCCOC1=O)OCC1c2ccccc2-c2ccccc21 — 3.6-fold higher, 12.7 µM
- COc1ccc(CCNc2ncnc3c2oc2ccccc23)cc1OC — within 1.5-fold, 2.72 µM
- COc1cc(C(=O)NC2CCN(C)CC2)ccc1Nc1ncc2c(n1)N(C1CCCCC1)CCC(=O)N2C — 2.2-fold lower, 1.6 µM
- COc1cc2c(c(OC)c1OC)-c1ccc(N(C)CC(OC)OC)c(=O)cc1[C@@H](NC(C)=O)CC2 — 2.1-fold higher, 7.37 µM
- O=C(Nc1ccccc1)C1=C[C@@H](C2CCCCC2)C[C@@H](OCCCCO)O1 — 1.8-fold lower, 1.96 µM
- Cc1cc(/C=N/n2cnnc2)c(C)n1-c1ccc(OCc2ccccc2F)cc1 — within 1.5-fold, 4.28 µM
- CCc1ccc(CN(C)C(=O)c2cc(COc3cccc4cnccc34)on2)cc1 — 1.7-fold higher, 5.85 µM
- CCCCOCCCNc1ncnc2c1[nH]c1ccccc12 — within 1.5-fold, 3.17 µM
- CCCCCCCN1C2=NCCCN2c2ccccc21 — 3.2-fold higher, 11.4 µM
- Cc1ccc(NCC(=O)Nc2cccc(S(=O)(=O)N(C)C)c2)cc1S(=O)(=O)N1CCCCCC1 — 4.1-fold higher, 14.5 µM
- O=c1c2ccccc2nc2n1C(CSCc1cccc(C(F)(F)F)c1)CS2 (centres undefined) — within 1.5-fold, 3.92 µM
- CCCCCCCOc1ccc(OC(=O)c2ccncc2)cc1 — 3.7-fold lower, 0.954 µM
- CC[C@@H](O)C[C@H]1CCC[C@@]2(C[C@@H]3OC(=O)/C=C/[C@@](C)(O)[C@@H](O)[C@H](C)[C@@H](O)[C@H](OC4CCC(N(C)C)C(C)O4)[C@@H](O)[C@](C)(O)CCCCC/C=C/[C@@H]4CC(C)(C)O[C@@]4(O)C[C@H](O2)[C@H]3C)O1 (some centres undefined) — lower, < 0.00977 µM
- COCCOc1nc2c(c(=O)n(C)c(=O)n2C)n1Cc1cccc(OC)c1 — 2.7-fold higher, 9.46 µM
- CCOC(=O)c1ccc(NC(=O)Cn2cnc3cc(C)c(C)cc32)cc1 — within 1.5-fold, 2.75 µM

For `CC(C)Cn1c(N)c(C(=O)COC(=O)C2Cc3ccccc3CN2S(C)(=O)=O)c(=O)n(C)c1=O` (centres undefined), the IC50 was > 20 µM (inactive).
For `COc1ccc(Nc2nc(N3CCOCC3)nc(N3CCOCC3)n2)c(OC)c1`, the IC50 was > 20 µM (inactive).
`CCOc1ccc(NS(=O)(=O)c2cccc(C(=O)N3CCN(C/C=C/c4ccccc4)CC3)c2)cc1` was tested, and the IC50 was > 20 µM (inactive).
`Cn1c(=O)c2c(nc(NCCOc3ccc(C(C)(C)C)cc3)n2C)n(C)c1=O` was tested, and the IC50 was > 20 µM (inactive).
For `O=C(COC(=O)c1ccc2[nH]c3c(c2c1)CCCC3)Nc1ccccc1Cl`, the IC50 was > 20 µM (inactive).
`Cc1nnsc1C(=O)Nc1ccc(S(=O)(=O)N2CCC(C)CC2)cc1` was tested, and the IC50 was > 20 µM (inactive).
With `C/C(=N\Nc1ccc(Cl)nn1)c1ccccc1O` the IC50 was > 20 µM (inactive).
`N=c1c(-c2nc3ccccc3[nH]2)cc(C(=O)c2ccco2)nn1-c1ccccc1` was tested, and the IC50 was > 20 µM (inactive).
For `CCN1CCCC1CNc1ncnc2c1[nH]c1ccc(Cl)cc12` (centres undefined), the IC50 was > 20 µM (inactive).
In the case of `NC(=O)CC(NC(=O)c1ccccc1)c1ccc(N2CCCCCC2)c([N+](=O)[O-])c1` (centres undefined), the IC50 is reported as > 20 µM (inactive).
In the case of `CCC(C)NS(=O)(=O)c1ccc(S(=O)(=O)N2CCCC3(CCCCC3)C2)cc1` (centres undefined), the IC50 is reported as > 20 µM (inactive).
`CCOC(CN=c1nc(N(C)C)ss1)OCC` was tested, and the IC50 was > 20 µM (inactive).

— PubChem BioAssay AID602464 (Sanford-Burnham Center for Chemical Genomics, 2012)
